According to PubChem BioAssay (NCI):
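In this assay, cells in 96-well plates receive the compound at five concentrations for 48 hours. Endpoints are linearly interpolated between the surrounding concentrations. The concentration for 50% growth inhibition is given as GI50. TGI is the concentration that stops growth completely.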

Tests used:
Assay in all cases: growth of human tumour cells (NCI), 48 h
A549 NSCLC = system: A549 NSCLC
HOP-92 NSCLC = system: HOP-92 NSCLC
HS 578T breast = system: HS 578T breast
M14 melanoma = system: M14 melanoma
MOLT-4 leukemia = system: MOLT-4 leukemia
OVCAR-5 ovarian = system: OVCAR-5 ovarian
SF-295 CNS = system: SF-295 CNS
SK-OV-3 ovarian = system: SK-OV-3 ovarian
SN12C renal = system: SN12C renal
SNB-75 CNS = system: SNB-75 CNS

Row | SMILES | TGI (A549 NSCLC) | TGI (HOP-92 NSCLC) | TGI (HS 578T breast) | TGI (M14 melanoma) | TGI (MOLT-4 leukemia) | TGI (OVCAR-5 ovarian) | TGI (SF-295 CNS) | TGI (SK-OV-3 ovarian) | TGI (SN12C renal) | TGI (SNB-75 CNS) | GI50 (A549 NSCLC) | GI50 (HOP-92 NSCLC) | GI50 (HS 578T breast) | GI50 (M14 melanoma) | GI50 (MOLT-4 leukemia) | GI50 (OVCAR-5 ovarian) | GI50 (SF-295 CNS) | GI50 (SK-OV-3 ovarian) | GI50 (SN12C renal) | GI50 (SNB-75 CNS)
1 | CC1OC(OC2C[C@](O)(C(=O)CF)Cc3c(O)c4c(c(O)c32)C(=O)c2ccccc2C4=O)CC(N)C1O (some centres undefined) | 0.173 µM | 0.805 µM | 0.117 µM | 0.368 µM | 0.0101 µM | 0.541 µM | 4.74 µM | 1.04 µM | 0.338 µM | 0.09 µM |  |  |  |  |  |  |  |  |  | 
2 | O=[N+]([O-])c1ccc2c(c1)Cc1cc(N=Cc3ccc4c(c3)OCO4)ccc1-2 | > 100 µM | > 100 µM | > 100 µM | > 100 µM | > 100 µM | > 100 µM | > 100 µM | > 100 µM | > 100 µM | > 100 µM |  |  |  |  |  |  |  |  |  | 
3 | Cc1cc(NCCN(C(C)C)C(C)C)nc(/N=C(\N)Nc2ccc(Cl)c(C(F)(F)F)c2)n1 | 1.11 µM | 1.01 µM | 1.69 µM | 0.323 µM | 1.47 µM | 5.24 µM | 2.14 µM | 2.55 µM | 2.87 µM | 1.03 µM | 0.356 µM | 163 nM | 473 nM | 181 nM | 383 nM | 2.36 µM | 752 nM | 1.26 µM | 1340 nM | 449 nM
4 | O=C1c2cccc(NCCN=Cc3cc([N+](=O)[O-])ccc3O)c2C(=O)c2c(NCCN=Cc3cc([N+](=O)[O-])ccc3O)cccc21 | > 100 µM | 84.1 µM | 29.4 µM | > 100 µM | 16.7 µM | > 100 µM | 52.1 µM | > 100 µM | > 100 µM | 19 µM | 3.89 µM | 3030 nM | 2740 nM | 26800 nM | 648 nM | 31.6 µM | 2080 nM | 18.9 µM | 2450 nM | 2160 nM
5 | Cc1cc(Cl)ccc1Nc1nc(C(F)(F)F)ccc1C(=O)N/N=C/c1ccc(Cl)cc1 | 27.9 µM | 6.85 µM | 9.62 µM | 7.63 µM | 4.35 µM | 6.64 µM |  | 5.57 µM | 9 µM | 6.48 µM | 3.02 µM | 1940 nM | 2530 nM | 2340 nM | 750 nM | 2.07 µM |  | 1.69 µM | 2220 nM | 1510 nM
6 | c1ccc(CN2CCC3(CC2)SSC2(CCN(Cc4ccccc4)CC2)S3)cc1 | > 100 µM | > 100 µM | > 100 µM | > 100 µM | > 100 µM | > 100 µM | 83.9 µM | > 100 µM | > 100 µM | > 100 µM |  |  |  |  |  |  |  |  |  | 
7 | CNC(=O)c1cccc2cc(Oc3ccnc4cc(OCC5(N)CC5)c(OC)cc34)ccc12 | 26.3 µM | 21 µM | 30.2 µM | 24.3 µM | 21.6 µM | 19.3 µM | 25 µM | 26.3 µM | 24.1 µM | 15.5 µM | 10.9 µM | 6890 nM | 5500 nM | 8470 nM | 3490 nM | 6.94 µM | 10100 nM | 12.1 µM | 6010 nM | 760 nM
8 | N#CCCN(CCCN(CCCN(C(=O)Nc1ccccc1)c1ccccc1)C(=O)Nc1ccccc1)C(=O)Nc1ccccc1 | > 100 µM | 80.4 µM | > 100 µM | > 100 µM | > 100 µM | > 100 µM | > 100 µM | > 100 µM | > 100 µM | > 100 µM | > 100 µM |  |  | > 100000 nM | 3950 nM | > 100 µM | > 100000 nM | > 100 µM | > 100000 nM | 59500 nM
9 | COc1cccc(-n2nc(C)c3c(N/N=C(\C)c4ccncc4)ncnc32)c1 | > 25 µM | 16.9 µM | > 25 µM | > 25 µM | > 25 µM | > 25 µM | > 25 µM | > 25 µM | > 25 µM | > 25 µM | > 25 µM | 1860 nM | > 25000 nM | > 25000 nM | > 25000 nM | > 25 µM | > 25000 nM | 13.4 µM | > 25000 nM | > 9220 nM
10 | COc1c(O)cc2oc(-c3ccc(O)cc3)cc(=O)c2c1O | > 100 µM | 36.8 µM | 73.8 µM | > 100 µM | 83.2 µM | > 100 µM | > 100 µM | > 100 µM | > 100 µM | 58.2 µM |  |  |  |  |  |  |  |  |  | 
11 | O=CN/C=C/c1cccc(O)c1 | 79.7 µM | > 97.1 µM | > 95.1 µM | > 88.2 µM | > 100 µM | > 96.1 µM | > 63.1 µM | > 100 µM | > 100 µM | > 92.5 µM |  |  |  |  |  |  |  |  |  | 
12 | Nc1nc(N)c2nc(CNc3ccc(C(=O)NC(CC(=O)O)C(=O)O)cc3)cnc2n1 (centres undefined) | > 100 µM | > 100 µM | > 100 µM | > 100 µM | > 100 µM | > 100 µM | > 34.6 µM | > 100 µM | > 100 µM | > 100 µM | 0.569 µM | > 100000 nM | 59200 nM | 556 nM | 903 nM | 16.3 µM | 508 nM | > 53.5 µM | 922 nM | 22200 nM
13 | O=C(Nc1ccncc1)C(=O)c1cn(Cc2ccc(Cl)cc2)c2ccccc12 | > 100 µM | > 75.1 µM | > 100 µM | > 100 µM | > 100 µM | > 100 µM | 0.0803 µM | > 100 µM | > 100 µM | 3.79 µM | 0.399 µM | 48.9 nM | 33.9 nM | 48 nM | 64 nM | 0.223 µM | 21.7 nM | 0.199 µM | 72.5 nM | 37.5 nM
14 | COc1ccc(/C=C/C(=O)c2ccc(O)c(CN3CCN(c4cc5c(cc4F)c(=O)c(C(=O)O)cn5C4CC4)CC3)c2)cc1 | > 100 µM | 6.21 µM | > 100 µM | > 100 µM | > 100 µM | > 100 µM | > 100 µM | 43.2 µM |  | 6.86 µM | 3.69 µM | 1230 nM | 714 nM | 1130 nM | 5290 nM | 4.61 µM | 2100 nM | 2.56 µM |  | 726 nM
